Measurements reported in US7358352B2, “Nucleic acids encoding human TNF-α convertase” (Schering Corporation, priority 1996, dated 2008).
Where two headings read alike, the source gives them in different places. Blank lines part the entries; values can stand above or below the molecule they belong to. The star is where a group is joined. MeOSuc = COC(=O)CCC(=O)*; CH2Cl = ClC*

Tests used:
TNF-α convertases = test: In vitro assays for TNF-α convertase activity (protease inhibitor profile); format: biochemical
Description: For the assay of convertase activity associated with or isolated from membrane preparations, a protein-based assay was carried out essentially as described by Mohler et al., Nature 370:218 (1995).
Briefly, a peptide-tagged recombinant human TNF-α protein substrate (Flag-TNF-α) was cloned and expressed in E. coli. The protein was purified by affinity chromatography using an M2 (anti-Flag)-Sepharose column (Kodak), and by ion exchange chromatography using a BIOCAD equipped with an HQ10 column.
To test for convertase activity, a membrane protein sample (12 μg) was mixed (in 12 μl) with 2 ng of ^125I-polypeptide substrate (approximately 50,000 cpm) in the presence of inhibitors of other proteolytic enzymes [e.g., 200 μM 4-(2-aminoethyl)-benzenesulfonyl fluoride hydrochloride (AEBSF), 2 μM pepstatin, 200 μM leupeptin, 1 mM methoxysuccinyl-Ala-Ala-Pro-Val-chloromethylketone (AAPV)], and with or without 2.5 mM EDTA. Following incubation at 37° C. overnight, samples were fractionated in a 16% sodium dodecylsulfate (SDS) gel and subjected to SDS polyacrylamide gel electrophoresis [SDS-PAGE; Laemmli, Nature 227:680 (1970)]. The gels were dried, and radioactivity was detected by autoradiography.
A polypeptide-based assay for TNF-α convertase activity was also carried out essentially using the method of Mohler et al., supra. Briefly, an amino-terminal dinitrophenylated peptide substrate, amidated at the carboxyl terminus (SEQ ID NO: 4) was synthesized and purified using standard procedures. Dinitrophenylated polypeptides corresponding to cleavage products expected for TNF-α convertase (a dinitrophenylated peptide having the sequence of residues 1-6 of SEQ ID NO: 4) and for other membrane proteases were also synthesized.
To test for convertase activity, a membrane protein sample was mixed in 50 μl with 1 μg peptide substrate in the presence of inhibitors (0.2 mM AEBSF, 2 μM pepstatin, 200 μM leupeptin, 1 mM AAPV). Following incubation at 37° C. for from 60 minutes to overnight, the protein was precipitated by cold 5% trichloroacetic acid (TCA), 20% acetonitrile, and the soluble peptide fraction was applied to a YMC 120 angstrom C-18 ODS-AQ column (4.6×100 mm; YMC, Inc.). The column was eluted isocratically at a flow rate of 1 ml/min using 40% acetonitrile plus 0.06% trifloroacetic acid. The elution of DNP-peptide was monitored at 360 nm using a Waters 625 LC system.

TNF-α secretion [1] = conditions: in vitro; cited from earlier work
TNF-α secretion [2] = conditions: in vivo; cited from earlier work
lethal dose of endotoxin = conditions: mice; cited from earlier work
[3] = general property, concentration not given

inhibition of TNF-α convertases (TNF-α convertases; [3]): Inhibited
Molecule: O[C@H](CS)[C@H](O)CS (racemic) [DTT, dithiothreitol]

inhibition of TNF-α convertases (TNF-α convertases; 100 μM): Not inhibited
Molecule: CC(C)C[C@H](NC(=O)[C@H]1O[C@@H]1C(=O)O)C(=O)NCCCCN=C(N)N (relative stereo) [E64]

inhibition of TNF-α convertases (TNF-α convertases; [3]): Inhibited
Molecule: c1cnc2c(c1)ccc1cccnc12 [1,10-phenanthroline]

Molecule: O=c1oc(Cl)c(Cl)c2ccccc12 [DCI, dichloroisocoumarin]
inhibition of TNF-α convertases (TNF-α convertases; 100 μM): Not inhibited

inhibition of TNF-α convertases (TNF-α convertases; [3]): Inhibited
Molecule: O=C(O)CN(CCN(CC(=O)O)CC(=O)O)CC(=O)O [EDTA, ethylenediaminetetraacetic acid]
band at the position of the 17 kDa human TNF-α cleavage product (SDS-PAGE autoradiography) (TNF-α convertases; membrane protein sample, 125I Flag-TNF-α substrate, with or without 2.5 mM EDTA, 37° C. overnight): intensified bands from the samples incubated without EDTA

Molecule: CNC(=O)[C@H](Cc1ccccc1)NC(=O)[C@H](CC(C)C)[C@H](CSc1ccccc1)C(=O)NO [GI 129471]
block of TNF-α secretion (TNF-α secretion [1]): block TNF-α secretion | block of TNF-α secretion (TNF-α secretion [2]): block TNF-α secretion

Molecule: O=C(O)CI [IAA, iodoacetic acid]
inhibition of TNF-α convertases (TNF-α convertases; 1 mM): Not inhibited

Molecule: CC(C)CC(CC(=O)NO)C(=O)N[C@@H](Cc1ccc2ccccc2c1)C(=O)N[C@@H](C)C(=O)NCCN (stereo partly drawn) [N-{D,L-[2-(hydroxyaminocarbonyl)methyl]-4-methylpentanoyl}L-3-(2′naphthyl)-alanyl-L alanine, 2-aminoethyl amide]
protection against a lethal dose of endotoxin (lethal dose of endotoxin): protect mice against a lethal dose of endotoxin

inhibition of TNF-α convertases (TNF-α convertases; 100 μM): Not inhibited
Molecule: C[C@H](CS)C(=O)N1CCC[C@H]1C(=O)O [captopril]

inhibition of TNF-α convertases (TNF-α convertases; 300 μM): Not inhibited
Molecule: CC(C)C[C@H](NP(=O)(O)O[C@@H]1O[C@@H](C)[C@H](O)[C@@H](O)[C@H]1O)C(=O)N[C@@H](Cc1c[nH]c2ccccc12)C(=O)O [phosphoramidon]

Molecule: O=C(O)CNC(=O)C(CS)Cc1ccccc1 (centres unmarked) [thiorphan]
inhibition of TNF-α convertases (TNF-α convertases; 100 μM): Not inhibited

inhibition of TNF-α convertases (TNF-α convertases; 1 μg/ml): Not inhibited
Molecule: TIMP-1: tissue inhibitor of metalloproteases-1

Molecule: methoxysuccinyl-Ala-Ala-Pro-Val-chloromethylketone (MeOSuc-AAPV-CH2Cl)
inhibition of TNF-α convertases (TNF-α convertases; 1 mM): Not inhibited

inhibition of TNF-α convertases (TNF-α convertases; [3]): Inhibited
Molecule: α-2 macroglobulin: protein protease inhibitor

inhibition of TNF-α convertases (TNF-α convertases; 1 μg/ml): Not inhibited
B1: SBTI: soybean trypsin inhibitor (protein, UniProt P01070 25-205, looked up)
Trypsin inhibitor A: DFVLDNEGNPLENGGTYYILSDITAFGGIRAAPTGNERCPLTVVQSRNELDKGIGTIISSPYRIRFIAEGHPLSLKFDSFAVIMLCVGIPTEWSVVEDLPEGPAVKIGENKDAMDGWFRLERVSDDEFNNYKLVFCPQQAEDDKCGDIGISIDHDDGTRRLVVSKNKPLVVQFQKLDKESL
